Data as given in patent US20250296959A1, “B7-H3 TARGETING PEPTIDES AND CONSTRUCTS THEREOF” (Mariana Oncology Inc., priority 2024, published 2025).
Starred links: 1 amine or outer side, 2 acyl side, 3 side chain; linkers in the order of their positions; H or OH if unused. Positions of bridges follow the written chain, without caps; N, C: chain ends. Non-standard residues stand in square brackets, D forms with d. Residues, ends and D or L forms follow the SMILES beside them. Groups on a side chain read outwards from the residue. *: point of attachment. X2 = O=C(O)CN1CCN(CC(=O)O)CCN(CC(=O)NCCOCCOCCOCCOCC(=O)*)CCN(CC(=O)O)CC1; Ala(piperidin-4-yl) = O=C([C@H](CC1CCN([*:3])CC1)N[*:1])[*:2]; Phe(3-CH2NH2) = O=C([C@H](Cc1cccc(CN[*:3])c1)N[*:1])[*:2]; DOTA = O=C(O)CN1CCN(CC(=O)O)CCN(CC(=O)*)CCN(CC(=O)O)CC1; X8 = O=C([C@H](C[C@H]1CC[C@@H](O)CC1)N[*:1])[*:2]; Trp(5-Cl) = N[C@@H](Cc1c[nH]c2ccc(Cl)cc12)C(=O)O; Trp(5-F) = N[C@@H](Cc1c[nH]c2ccc(F)cc12)C(=O)O; γGlu = O=C(O)[C@H](CCC(=O)[*:2])N[*:1]; 1Nal = N[C@@H](Cc1cccc2ccccc12)C(=O)O; Ala(4-THP) = N[C@@H](CC1CCOCC1)C(=O)O; Val(3-OH) = CC(C)(O)[C@H](N)C(=O)O; 3Pal = N[C@@H](Cc1cccnc1)C(=O)O; 4Pal = N[C@@H](Cc1ccncc1)C(=O)O; Tle = CC(C)(C)[C@H](N)C(=O)O; hLeu = CC(C)CC[C@H](N)C(=O)O; NMeC = CN[C@@H](CS)C(=O)O; Nle = CCCC[C@H](N)C(=O)O

Target: T1, human 4lg B7-H3 (Homo sapiens, UniProt Q5ZPR3)
T1 sequence (Q5ZPR3 29-534): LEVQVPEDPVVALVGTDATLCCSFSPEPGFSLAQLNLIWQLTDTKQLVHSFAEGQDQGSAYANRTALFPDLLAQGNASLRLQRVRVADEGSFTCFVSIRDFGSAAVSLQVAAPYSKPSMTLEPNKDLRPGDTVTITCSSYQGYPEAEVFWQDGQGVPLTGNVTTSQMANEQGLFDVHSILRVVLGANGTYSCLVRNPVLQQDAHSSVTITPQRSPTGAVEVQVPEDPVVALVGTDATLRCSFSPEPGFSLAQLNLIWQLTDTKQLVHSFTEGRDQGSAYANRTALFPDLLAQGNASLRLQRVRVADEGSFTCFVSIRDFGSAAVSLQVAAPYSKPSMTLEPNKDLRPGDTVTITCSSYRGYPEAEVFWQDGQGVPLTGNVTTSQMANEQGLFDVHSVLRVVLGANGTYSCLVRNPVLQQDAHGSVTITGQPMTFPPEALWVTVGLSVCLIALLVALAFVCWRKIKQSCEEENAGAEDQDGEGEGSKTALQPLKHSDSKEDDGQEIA
Assay: Affinity determination by surface plasmon resonance (SPR) to 4Ig B7-H3
Settings: SPR KD—25° C., 4Ig B7-H3; 25° C. flow cell temperature

Kd [nM] | SMILES
1 to 10 | CCCC[C@H](NC(C)=O)C(=O)N[C@@H](Cc1ccc(O)cc1)C(=O)N[C@H]1CSSC[C@@H](C(=O)N[C@@H](Cc2c[nH]c3ccccc23)C(=O)N[C@@H](Cc2ccccc2)C(=O)N[C@H](C(=O)N[C@H](CCCCNC(=O)CN2CCN(CC(=O)O)CCN(CC(=O)O)CCN(CC(=O)O)CC2)C(=O)O)[C@@H](C)O)NC(=O)[C@H](Cc2ccc(O)cc2)NC(=O)[C@H](C(C)C)NC(=O)[C@H](CC(=O)O)NC(=O)[C@H](Cc2ccc(O)cc2)NC(=O)[C@H](CCCCN)NC(=O)CNC(=O)[C@H](C(C)C)NC1=O [compound 28, Ac-Nle-Y-C-V-G-K-Y-D-V-Y-C-W-F-Thr-dLys(DOTA)-COOH] (Ac-[Nle]YCVGKYDVYCWFT[dK](DOTA)-OH; disulfide 3-11)
1 to 10 | CC(=O)N[C@@H](CCC(C)C)C(=O)N[C@@H](Cc1ccc(O)cc1)C(=O)N(C)[C@H]1CSSC[C@@H](C(=O)N[C@@H](Cc2c[nH]c3ccc(F)cc23)C(=O)N[C@@H](Cc2ccccc2)C(=O)N[C@H](C(=O)N[C@H](CCCCNC(=O)CN2CCN(CC(=O)O)CCN(CC(=O)O)CCN(CC(=O)O)CC2)C(=O)O)[C@@H](C)O)NC(=O)[C@H](Cc2ccc(O)cc2)NC(=O)[C@H](C(C)C)NC(=O)[C@H](CC(=O)O)NC(=O)[C@H](CC2CCOCC2)NC(=O)[C@H](CCCCN)NC(=O)CNC(=O)[C@H](C(C)C)NC1=O [compound 361, Ac-hLeu-Y-NMeCys-V-G-K-ThpA-D-V-Y-C-5FW-F-Thr-dLys(DOTA)-COOH] (Ac-[hLeu]Y[NMeC]VGK[Ala(4-THP)]DVYC[Trp(5-F)]FT[dK](DOTA)-OH; disulfide 3-11)
1 to 10 | COc1ccc(C[C@@H]2NC(=O)[C@H](C(C)C)NC(=O)[C@H](CC(=O)O)NC(=O)[C@H](Cc3ccncc3)NC(=O)[C@H](CCCCNC(=O)CN3CCN(CC(=O)O)CCN(CC(=O)O)CCN(CC(=O)O)CC3)NC(=O)CNC(=O)[C@H](C(C)C)NC(=O)[C@@H](NC(=O)[C@H](Cc3ccc(O)cc3)NC(=O)[C@H](CCC(C)C)NC(C)=O)CSSC[C@@H](C(=O)N[C@@H](Cc3c[nH]c4ccc(F)cc34)C(=O)N[C@@H](Cc3ccccc3)C(=O)N3CCC[C@H]3C(N)=O)NC2=O)cc1 [compound 249, Ac-hLeu-Y-C-V-G-Lys(DOTA)-4PyA-D-V-OMeTyr-C-5FW-F-Pro-CONH2] (Ac-[hLeu]YCVGK(DOTA)[4Pal]DVY(Me)C[Trp(5-F)]FP-NH2; disulfide 3-11)
1 to 10 | CC(=O)N[C@@H](CCC(C)C)C(=O)N[C@@H](Cc1ccc(O)cc1)C(=O)N[C@H]1CSSC[C@@H](C(=O)N[C@@H](Cc2cccc3ccccc23)C(=O)N[C@@H](Cc2ccccc2)C(=O)N2CCC[C@H]2C(N)=O)NC(=O)[C@H](Cc2ccc(O)cc2)NC(=O)[C@H](C(C)C)NC(=O)[C@H](CC(=O)O)NC(=O)[C@H](Cc2cccc(CNC(=O)COCCOCCOCCOCCNC(=O)CN3CCN(CC(=O)O)CCN(CC(=O)O)CCN(CC(=O)O)CC3)c2)NC(=O)[C@H](CCCCN)NC(=O)CNC(=O)[C@H](C(C)(C)C)NC1=O [compound 257, Ac-hLeu-Y-C-Tbg-G-K-MAF(PEG4-DOTA)-D-V-Y-C-1Nal-F-Pro-CONH2] (Ac-[hLeu]YC[Tle]GK[Phe(3-CH2NH2)](X2)DVYC[1Nal]FP-NH2; disulfide 3-11)
1 to 10 | CC(=O)N[C@@H](CCC(C)C)C(=O)N[C@@H](Cc1ccc(O)cc1)C(=O)N[C@H]1CSSC[C@@H](C(=O)N[C@@H](Cc2cccc3ccccc23)C(=O)N[C@@H](Cc2ccccc2)C(=O)N2CCC[C@H]2C(N)=O)NC(=O)[C@H](Cc2ccc(O)cc2)NC(=O)[C@H](C(C)C)NC(=O)[C@H](CC(=O)O)NC(=O)[C@H](Cc2cccc(CNC(=O)CC[C@H](NC(=O)CN3CCN(CC(=O)O)CCN(CC(=O)O)CCN(CC(=O)O)CC3)C(=O)O)c2)NC(=O)[C@H](CCCCN)NC(=O)CNC(=O)[C@H](C(C)(C)C)NC1=O [compound 254, Ac-hLeu-Y-C-Tbg-G-K-MAF(gE-DOTA)-D-V-Y-C-1Nal-F-Pro-CONH2] (Ac-[hLeu]YC[Tle]GK[Phe(3-CH2NH2)]([γGlu-DOTA])DVYC[1Nal]FP-NH2; disulfide 3-11)
1 to 10 | CC(=O)N[C@@H](CCC(C)C)C(=O)N[C@@H](Cc1ccc(O)cc1)C(=O)N[C@H]1CSSC[C@@H](C(=O)N[C@@H](Cc2c[nH]c3ccc(F)cc23)C(=O)N[C@@H](Cc2ccccc2)C(=O)N[C@H](C(=O)N[C@H](CCCCNC(=O)CN2CCN(CC(=O)O)CCN(CC(=O)O)CCN(CC(=O)O)CC2)C(N)=O)[C@@H](C)O)NC(=O)[C@H](Cc2cccnc2)NC(=O)[C@H](C(C)C)NC(=O)[C@H](CC(=O)O)NC(=O)[C@H](Cc2ccc(O)cc2)NC(=O)[C@H](CCCCN)NC(=O)CNC(=O)[C@H](C(C)C)NC1=O [compound 170, Ac-hLeu-Y-C-V-G-K-Y-D-V-3PyA-C-5FW-F-Thr-dLys(DOTA)-CONH2] (Ac-[hLeu]YCVGKYDV[3Pal]C[Trp(5-F)]FT[dK](DOTA)-NH2; disulfide 3-11)

Same assay, conditions: SPR KD—37° C., 4Ig B7-H3; 37° C. flow cell temperature

Kd [nM] | SMILES
1 to 10 | CCCC[C@H](NC(C)=O)C(=O)N[C@@H](Cc1ccc(O)cc1)C(=O)N[C@H]1CSSC[C@@H](C(=O)N[C@@H](Cc2c[nH]c3ccccc23)C(=O)N[C@@H](Cc2ccccc2)C(=O)N[C@H](C(=O)N[C@H](CCCCNC(=O)CN2CCN(CC(=O)O)CCN(CC(=O)O)CCN(CC(=O)O)CC2)C(=O)O)[C@@H](C)O)NC(=O)[C@H](Cc2ccc(O)cc2)NC(=O)[C@H](C(C)C)NC(=O)[C@H](CC(=O)O)NC(=O)[C@H](Cc2ccc(O)cc2)NC(=O)[C@H](CCCCN)NC(=O)CNC(=O)[C@H](C(C)C)NC1=O [compound 28, Ac-Nle-Y-C-V-G-K-Y-D-V-Y-C-W-F-Thr-dLys(DOTA)-COOH] (Ac-[Nle]YCVGKYDVYCWFT[dK](DOTA)-OH; disulfide 3-11)
1 to 10 | CC(=O)N[C@@H](CCC(C)C)C(=O)N[C@@H](Cc1ccc(O)cc1)C(=O)N[C@H]1CSSC[C@@H](C(=O)N[C@@H](Cc2c[nH]c3ccc(F)cc23)C(=O)N[C@@H](Cc2ccccc2)C(=O)N[C@H](C(=O)N[C@H](CCC(=O)O)C(N)=O)C(C)(C)O)NC(=O)[C@H](Cc2ccc(O)cc2)NC(=O)[C@H](C(C)C)NC(=O)[C@H](CC(=O)O)NC(=O)[C@H](C[C@H]2CC[C@@H](O)CC2)NC(=O)[C@H](CCCCNC(=O)CN2CCN(CC(=O)O)CCN(CC(=O)O)CCN(CC(=O)O)CC2)NC(=O)CNC(=O)[C@H](C(C)(C)C)NC1=O [compound 424, Ac-hLeu-Y-C-Tbg-G-Lys(DOTA)-4OHCha(pk1)-D-V-Y-C-5FW-F-hydroxyVal-dGlu-CONH2] (Ac-[hLeu]YC[Tle]GK(DOTA)[X8]DVYC[Trp(5-F)]F[Val(3-OH)][dE]-NH2; disulfide 3-11)
1 to 10 | CC(=O)N[C@@H](CCC(C)C)C(=O)N[C@@H](Cc1ccc(O)cc1)C(=O)N[C@H]1CSSC[C@@H](C(=O)N[C@@H](Cc2c[nH]c3ccc(F)cc23)C(=O)N[C@@H](Cc2ccccc2)C(=O)N[C@H](C(=O)N[C@H](CCC(=O)O)C(N)=O)C(C)(C)O)NC(=O)[C@H](Cc2ccc(O)cc2)NC(=O)[C@H](C(C)C)NC(=O)[C@H](CC(=O)O)NC(=O)[C@H](CC2CCOCC2)NC(=O)[C@H](CCCCNC(=O)CN2CCN(CC(=O)O)CCN(CC(=O)O)CCN(CC(=O)O)CC2)NC(=O)CNC(=O)[C@H](C(C)(C)C)NC1=O [compound 423, Ac-hLeu-Y-C-Tbg-G-Lys(DOTA)-ThpA-D-V-Y-C-5FW-F-hydroxyVal-dGlu-CONH2] (Ac-[hLeu]YC[Tle]GK(DOTA)[Ala(4-THP)]DVYC[Trp(5-F)]F[Val(3-OH)][dE]-NH2; disulfide 3-11)
< 1 | CC(=O)N[C@@H](CCC(C)C)C(=O)N[C@@H](Cc1ccc(O)cc1)C(=O)N[C@H]1CSSC[C@@H](C(=O)N[C@@H](Cc2c[nH]c3ccc(Cl)cc23)C(=O)N[C@@H](Cc2ccccc2)C(=O)N[C@H](C(=O)N[C@H](CCCCNC(=O)CN2CCN(CC(=O)O)CCN(CC(=O)O)CCN(CC(=O)O)CC2)C(=O)O)C(C)(C)O)NC(=O)[C@H](Cc2ccc(O)cc2)NC(=O)[C@H](C(C)C)NC(=O)[C@H](CC(=O)O)NC(=O)[C@H](CC2CCOCC2)NC(=O)[C@H](CC2CCNCC2)NC(=O)CNC(=O)[C@H](C(C)(C)C)NC1=O [compound 457, Ac-hLeu-Y-C-Tbg-G-PipAla-ThpA-D-V-Y-C-5ClW-F-hydroxyVal-dLys(DOTA)-COOH] (Ac-[hLeu]YC[Tle]G[Ala(piperidin-4-yl)][Ala(4-THP)]DVYC[Trp(5-Cl)]F[Val(3-OH)][dK](DOTA)-OH; disulfide 3-11)
1 to 10 | CC(=O)N[C@@H](CCC(C)C)C(=O)N[C@@H](Cc1ccc(O)cc1)C(=O)N[C@H]1CSSC[C@@H](C(=O)N[C@@H](Cc2c[nH]c3ccc(F)cc23)C(=O)N[C@@H](Cc2ccccc2)C(=O)N[C@H](C(=O)N[C@H](CCC(=O)O)C(N)=O)C(C)(C)O)CC(=O)[C@H](Cc2ccc(O)cc2)NC(=O)[C@H](C(C)C)NC(=O)[C@H](CC(=O)O)NC(=O)[C@H](C[C@H]2CC[C@H](O)CC2)NC(=O)[C@H](CCCCNC(=O)CN2CCN(CC(=O)O)CCN(CC(=O)O)CCN(CC(=O)O)CC2)NC(=O)CNC(=O)[C@H](C(C)(C)C)NC1=O [compound 425, Ac-hLeu-Y-C-Tbg-G-Lys(DOTA)-4OHCha(pk2)-D-V-Y-C-5FW-F-hydroxyVal-dGlu-CONH2]

Same assay, conditions: read-out: SPR KD—37° C.; 4Ig B7-H3; 37° C. flow cell temperature

Kd [nM] | SMILES
< 1 | CC(=O)N[C@@H](CCC(C)C)C(=O)N[C@@H](Cc1ccc(O)cc1)C(=O)N[C@H]1CSSC[C@@H](C(=O)N[C@@H](Cc2c[nH]c3ccc(F)cc23)C(=O)N[C@@H](Cc2ccccc2)C(=O)N[C@H](C(=O)N[C@H](CCCCNC(=O)CN2CCN(CC(=O)O)CCN(CC(=O)O)CCN(CC(=O)O)CC2)C(=O)O)C(C)(C)O)NC(=O)[C@H](Cc2ccc(O)cc2)NC(=O)[C@H](C(C)C)NC(=O)[C@H](CC(=O)O)NC(=O)[C@H](CC2CCC(O)CC2)NC(=O)[C@H](CC2CCNCC2)NC(=O)CNC(=O)[C@H](C(C)(C)C)NC1=O (single isomer, unassigned) [compound 480, Ac-hLeu-Y-C-Tbg-G-PipAla-4OHCha(pk2)-D-V-Y-C-5FW-F-hydroxyVal-dLys(DOTA)-COOH]
